Test results from BindingDB's records for PubMed 11454901 (Shionogi, 2001).

Target: T1, Prostaglandin-H2 D-isomerase (Sus scrofa, UniProt Q29095)
T1 sequence (Q29095 whole entry): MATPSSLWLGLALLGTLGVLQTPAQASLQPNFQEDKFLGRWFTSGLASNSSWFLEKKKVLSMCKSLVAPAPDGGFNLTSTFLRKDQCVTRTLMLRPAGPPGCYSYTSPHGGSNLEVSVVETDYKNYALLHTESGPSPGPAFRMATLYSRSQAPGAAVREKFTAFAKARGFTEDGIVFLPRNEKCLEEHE

SMILES: CC1(C)[C@H]2C[C@H](C/C=C\CCCC(=O)O)[C@@H](NC(=O)c3csc4ccc(O)cc34)[C@@H]1C2
- Ki: 193 nM

SMILES: O=C(O)CCC/C=C\C[C@@H]1C(NS(=O)(=O)c2ccccc2)C2CC[C@@H]1C2 (single isomer, unassigned; (+)) [S 145]
- Ki: 0.49 nM
